Source: patent publication US20060069132A1, “Azolecarboxamide herbicides” (priority 2004, published 2006)
Like-named read-outs stand apart in the source and are kept apart here.

Key:
giant foxtail = test: Test A pre-/postemergence herbicide test; type: in vivo, Setaria faberi; conditions: Setaria faberi, 240 h; for pest or weed control at 500 g/ha: 500 g ai/ha; for pest or weed control at 2000 g/ha: 2000 g ai/ha
In short: (§1)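 Visual injury rating on a 0–100 scale (0 no effect, 100 complete control) versus untreated controls, about ten days after treatment in greenhouse. Pre: directed soil spray onto seeded sandy loam. Post: spray to runoff on plants 2–10 cm tall at one- to two-leaf stage.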

velvetleaf = test: Test A pre-/postemergence herbicide test; type: in vivo, Abutilon theophrasti; conditions: Abutilon theophrasti, 240 h; for pest or weed control at 500 g/ha: 500 g ai/ha; for pest or weed control at 2000 g/ha: 2000 g ai/ha
In short: as §1

Surinam grass = test: Test C pre-/postemergence herbicide test; type: in vivo, Urochloa decumbens
In short: (§2)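 Pre- and postemergence application, solvent/surfactant formulation; post at 1- to 4-leaf stage (2–18 cm). Greenhouse 12–14 d. Visual rating vs controls, 0 = no effect, 100 = complete control.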

corn = test: Test C pre-/postemergence herbicide test; type: in vivo, Zea mays
In short: as §2

woolly cupgrass = test: Test C pre-/postemergence herbicide test; type: in vivo, Eriochloa villosa
In short: as §2

goosegrass = test: Test C pre-/postemergence herbicide test; type: in vivo, Eleusine indica
In short: as §2

kochia = test: Test C pre-/postemergence herbicide test; type: in vivo, Kochia scoparia
In short: as §2

lambsquarters = test: Test C pre-/postemergence herbicide test; type: in vivo, Chenopodium album
In short: as §2

morningglory = test: Test C pre-/postemergence herbicide test; type: in vivo, Ipomoea coccinea
In short: as §2

yellow nutsedge = test: Test C pre-/postemergence herbicide test; type: in vivo, Cyperus esculentus
In short: as §2

pigweed = test: Test C pre-/postemergence herbicide test; type: in vivo, Amaranthus retroflexus
In short: as §2

soybean = test: Test C pre-/postemergence herbicide test; type: in vivo, Glycine max
In short: as §2

[1] = test system: smallflower umbrella sedge; test: Test C flooded paddy test; type: in vivo, Cyperus difformis; conditions: Cyperus difformis
barnyardgrass = test: Test C flooded paddy test; type: in vivo, Echinochloa crus-galli; conditions: Echinochloa crus-galli
In short: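 Weeds and wheat were sprayed after emergence, at a height of 2 to 18 cm (1–4 leaves), and paddy barnyardgrass was flooded and treated at two leaves. Assessment took place 12–14 days later in the greenhouse on a 0-to-100 visual control scale. A dash means no result was obtained.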

[2] = post-emergence, Postemergence, 0 to 100 scale, 0 no effect, 100 complete control, read-out: Plant response rating, Foxtail, Giant
[3] = post-emergence, Postemergence, 0 to 100 scale, 0 no effect, 100 complete control, read-out: Plant response rating, Velvetleaf
[4] = Preemergence, 500 g ai/ha, scale 0 to 100, 0 no effect, 100 complete control

Question: What does the source list for CCNC(=O)c1ccc(F)c(NC(=O)c2cc(C(C)(C)C)nn2CC)c1 [Compound 2, 3-(1,1-dimethylethyl)-1-ethyl-N-[5-[(ethylamino)carbonyl]-2-fluorophenyl]-1H-pyrazole-5-carboxamide]?
Answer: pest or weed control at 500 g/ha (giant foxtail; [2]): 95%; pest or weed control at 2000 g/ha (giant foxtail; [2]): 100%; pest or weed control at 500 g/ha (giant foxtail; pre-emergence, Preemergence, visual rating, 0 to 100 scale (0 no effect, 100 complete control), read-out: Foxtail, Giant plant response rating): 100%; pest or weed control at 2000 g/ha (giant foxtail; pre-emergence, Preemergence, 0 to 100 scale, 0 no effect, 100 complete control, read-out: Foxtail, Giant plant response rating): 100%; pest or weed control at 500 g/ha (velvetleaf; [3]): 40%; pest or weed control at 2000 g/ha (velvetleaf; [3]): 75%; pest or weed control at 500 g/ha (velvetleaf; pre-emergence, Preemergence, visual rating, 0 to 100 scale (0 no effect, 100 complete control), read-out: Velvetleaf plant response rating): 100%; pest or weed control at 2000 g/ha (velvetleaf; pre-emergence, Preemergence, 0 to 100 scale, 0 no effect, 100 complete control, read-out: Velvetleaf plant response rating): 100%; Plant response rating (0 = no effect, 100 = complete control), Surinam Grass (Surinam grass; 62 g ai/ha, preemergence): 90; Surinam Grass plant response rating (Surinam grass; [4]): 100; pest or weed control at 250 g/ha (Surinam grass; Urochloa decumbens, pre-emergence, 312 h, 250 g ai/ha, scale 0 to 100 (0 no effect, 100 complete control), visual, 12 to 14 days, read-out: Plant response rating, Surinam Grass): 100%; Plant response rating (0 = no effect, 100 = complete control), Corn (corn; 62 g ai/ha, preemergence): 0; Corn plant response rating (corn; [4]): 60; Corn plant response rating (crop injury, 0 = no effect, 100 = complete kill) at 125 g/ha (corn; Zea mays, pre-emergence, 312 h, 125 g ai/ha, scale 0-100): 30%; Corn plant response rating (crop injury, 0 = no effect, 100 = complete kill) at 250 g/ha (corn; Zea mays, pre-emergence, 312 h, 250 g ai/ha, scale 0 to 100 (0 no effect, 100 complete control), visual, 12 to 14 days): 35%; Plant response rating (0 = no effect, 100 = complete control), Cupgrass, Woolly (woolly cupgrass; 62 g ai/ha, preemergence): 40; pest or weed control at 125 g/ha (woolly cupgrass; Eriochloa villosa, pre-emergence, 312 h, 125 g ai/ha, scale 0-100, read-out: Plant response rating, Cupgrass, Woolly): 60%; pest or weed control at 250 g/ha (woolly cupgrass; Eriochloa villosa, pre-emergence, 312 h, 250 g ai/ha, scale 0 to 100 (0 no effect, 100 complete control), visual, 12 to 14 days, read-out: Plant response rating, Cupgrass, Woolly): 60%; Cupgrass, Woolly plant response rating (woolly cupgrass; [4]): 80; Plant response rating (0 = no effect, 100 = complete control), Goosegrass (goosegrass; 62 g ai/ha, preemergence): 90; pest or weed control at 125 g/ha (goosegrass; Eleusine indica, pre-emergence, 312 h, 125 g ai/ha, scale 0-100, read-out: Plant response rating, Goosegrass): 95%; pest or weed control at 250 g/ha (goosegrass; Eleusine indica, pre-emergence, 312 h, 250 g ai/ha, scale 0 to 100 (0 no effect, 100 complete control), visual, 12 to 14 days, read-out: Plant response rating, Goosegrass): 95%; Goosegrass plant response rating (goosegrass; [4]): 100; Plant response rating (0 = no effect, 100 = complete control), Kochia (kochia; 62 g ai/ha, preemergence): 100; pest or weed control at 125 g/ha (kochia; Bassia scoparia, pre-emergence, 125 g ai/ha, scale 0-100, read-out: Plant response rating, Kochia): 100%; pest or weed control at 250 g/ha (kochia; Bassia scoparia, pre-emergence, 250 g ai/ha, scale 0 to 100 (0 no effect, 100 complete control), visual, 12 to 14 days, read-out: Plant response rating, Kochia): 100%; Kochia plant response rating (kochia; [4]): 100; Plant response rating (0 = no effect, 100 = complete control), Lambsquarters (lambsquarters; 62 g ai/ha, preemergence): 100; pest or weed control at 125 g/ha (lambsquarters; Chenopodium album, pre-emergence, 125 g ai/ha, scale 0-100, read-out: Plant response rating, Lambsquarters): 100%; pest or weed control at 250 g/ha (lambsquarters; Chenopodium album, pre-emergence, 250 g ai/ha, scale 0 to 100 (0 no effect, 100 complete control), visual, 12 to 14 days, read-out: Plant response rating, Lambsquarters): 100%; Lambsquarters plant response rating (lambsquarters; [4]): 100; Plant response rating (0 = no effect, 100 = complete control), Morningglory (morningglory; 62 g ai/ha, preemergence): 5; pest or weed control at 250 g/ha (morningglory; Ipomoea, pre-emergence, 250 g ai/ha, scale 0 to 100 (0 no effect, 100 complete control), visual, 12 to 14 days, read-out: Plant response rating, Morningglory): 45%; Morningglory plant response rating (morningglory; [4]): 100; Plant response rating (0 = no effect, 100 = complete control), Nutsedge, Yellow (yellow nutsedge; 62 g ai/ha, preemergence): 30; pest or weed control at 250 g/ha (yellow nutsedge; Cyperus, pre-emergence, 250 g ai/ha, scale 0 to 100 (0 no effect, 100 complete control), visual, 12 to 14 days, read-out: Plant response rating, Nutsedge, Yellow): 90%; Plant response rating (0 = no effect, 100 = complete control), Pigweed (pigweed; 62 g ai/ha, preemergence): 95; pest or weed control at 250 g/ha (pigweed; Amaranthus retroflexus, pre-emergence, 250 g ai/ha, scale 0 to 100 (0 no effect, 100 complete control), visual, 12 to 14 days, read-out: Plant response rating, Pigweed): 95%; Pigweed plant response rating (pigweed; [4]): 100; Plant response rating (0 = no effect, 100 = complete control), Soybean (soybean; 62 g ai/ha, preemergence): 30; plant injury at 250 g/ha (soybean; Glycine max, pre-emergence, 250 g ai/ha, scale 0 to 100 (0 no effect, 100 complete control), visual, 12 to 14 days, read-out: Plant response rating, Soybean): 100%; Soybean plant response rating (soybean; [4]): 100; pest or weed control at 62 g/ha ([1]; 62 g ai/ha, scale 0 to 100 (0 no effect, 100 complete control), read-out: Sedge, Umbrella plant response rating): 75%; pest or weed control at 125 g/ha ([1]; 125 g ai/ha, scale of 0 to 100, 0 is no effect, 100 is complete control, read-out: Sedge, Umbrella plant response rating): 75%; pest or weed control at 250 g/ha ([1]; 250 g ai/ha, visual rating after 12 to 14 days, scale 0 to 100 (0 no effect, 100 complete control), read-out: Plant response rating, Sedge, Umbrella): 85%; pest or weed control at 500 g/ha ([1]; 500 g ai/ha, visual rating after 12 to 14 days, scale 0 to 100 (0 no effect, 100 complete control), read-out: Plant response rating, Sedge, Umbrella): 95%; pest or weed control at 62 g/ha (barnyardgrass; 62 g ai/ha, scale 0 to 100 (0 no effect, 100 complete control), read-out: Barnyardgrass plant response rating): 15%; pest or weed control at 125 g/ha (barnyardgrass; 125 g ai/ha, scale of 0 to 100, 0 is no effect, 100 is complete control, read-out: Barnyardgrass plant response rating): 75%; pest or weed control at 250 g/ha (barnyardgrass; 250 g ai/ha, visual rating after 12 to 14 days, scale 0 to 100 (0 no effect, 100 complete control), read-out: Plant response rating, Barnyardgrass): 75%; pest or weed control at 500 g/ha (barnyardgrass; 500 g ai/ha, visual rating after 12 to 14 days, scale 0 to 100 (0 no effect, 100 complete control), read-out: Plant response rating, Barnyardgrass): 90%
